# Measured values from patent US6429312B2, “N-aminoalkyldibenzothiopencarboxamide receptor subtype specific ligands” (Neurogen Corporation, priority 1996, dated 2002).
# Structures can show the parent of a compound that is named as a salt. Where two headings read alike, the source gives them in different places.
# Key:
# D3 receptors = biological target: T1, D3 receptors (Chlorocebus aethiops, UniProt P52703); test: D3 receptor binding assay (3H-YM 09151-2 displacement); design: species or system African Green monkey
# T1 construct: expressed in transfected cells; host or cells: COS cells
# Experimental: (§1) ASSAY FOR D2 AND D3 RECEPTOR BINDING ACTIVITY
# (§2) Pellets of COS cells containing recombinantly produced D2 or D3 receptors from African Green monkey were used for the assays. The sample is homogenized in 100 volumes (w/vol) of 0.05 M Tris HCl buffer at 4° C. and pH 7.4. The sample is then centrifuged at 30,000×g and resuspended and rehomogenized. The sample is then centrifuged as described and the final tissue sample is frozen until use. The tissue is resuspended 1:20 (wt/vol) in 0.05 M Tris HCl buffer containing 100 mM NaCl.
# (§3) Incubations are carried out at 48° C. and contain 0.4 ml of tissue sample, 0.5 nM ^3H-YM 09151-2 and the compound of interest in a total incubation of 1.0 ml. Nonspecific binding is defined as that binding found in the presence of […] spiperone; without further additions, nonspecific binding is less than 20% of total binding. The binding characteristics of representative compounds of the invention for D2 and D3 receptor subtypes are shown in Table 2 for rat striatal homogenates.
# D2 receptors = biological target: T2, D2 receptors (Chlorocebus aethiops, UniProt P52702); test: D2 receptor binding assay (3H-YM 09151-2 displacement); design: species or system African Green monkey
# T2 construct: expressed in transfected cells; host or cells: COS cells
# Experimental: as §1, §2, §3
# T2 sequence (P52702 whole entry): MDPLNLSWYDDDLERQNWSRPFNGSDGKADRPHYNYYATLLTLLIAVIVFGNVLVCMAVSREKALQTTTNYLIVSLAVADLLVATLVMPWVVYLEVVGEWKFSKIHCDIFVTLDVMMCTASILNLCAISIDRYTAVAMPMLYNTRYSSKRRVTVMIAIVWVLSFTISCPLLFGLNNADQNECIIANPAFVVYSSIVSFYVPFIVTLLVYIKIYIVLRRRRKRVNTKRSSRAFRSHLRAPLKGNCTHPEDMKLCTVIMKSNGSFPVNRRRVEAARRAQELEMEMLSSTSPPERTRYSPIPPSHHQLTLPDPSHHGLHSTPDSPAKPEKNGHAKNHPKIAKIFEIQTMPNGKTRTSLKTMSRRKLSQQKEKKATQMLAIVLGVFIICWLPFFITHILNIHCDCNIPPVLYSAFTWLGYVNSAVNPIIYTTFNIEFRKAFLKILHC
# T1 sequence (P52703 whole entry): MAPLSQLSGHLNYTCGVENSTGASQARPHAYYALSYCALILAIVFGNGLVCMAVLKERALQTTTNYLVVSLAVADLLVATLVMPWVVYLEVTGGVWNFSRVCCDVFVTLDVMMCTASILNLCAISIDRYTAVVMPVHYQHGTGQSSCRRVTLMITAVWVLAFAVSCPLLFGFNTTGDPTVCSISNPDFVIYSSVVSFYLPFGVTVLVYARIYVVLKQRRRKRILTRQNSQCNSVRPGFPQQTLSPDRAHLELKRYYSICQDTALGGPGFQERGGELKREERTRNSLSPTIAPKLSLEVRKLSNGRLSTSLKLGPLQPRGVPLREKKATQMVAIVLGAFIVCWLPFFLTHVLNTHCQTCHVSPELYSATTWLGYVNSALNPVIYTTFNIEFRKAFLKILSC
smiles,measurement,setting,value
"O=C(NCCCCN1CCN(c2cccc(Cl)c2Cl)CC1)c1ccc2sc3ccccc3c2c1 [Compound 1, N-(1-{4-[4-(2,3-Dichlorophenyl)piperazin-1-yl]}butyl)-2-dibenzothiophenecarboxamide hydrochloride]",Ki,D3 receptors,3.5 nM
same,Ki,D2 receptors,285 nM
"O=C(NCCCCN1CCN(c2cccc3ccccc23)CC1)c1ccc2sc3ccccc3c2c1 [Compound 2, N-(1-{4-[4-(1-Naphthyl)piperazin-1-yl]}butyl)-2-dibenzothiophenecarboxamide hydrochloride]",Ki,"D3 receptors; COS cells containing recombinantly produced D3 receptors, 0.5 nM 3H-YM 09151-2, nonspecific binding with 1 mM spiperone, read-out: D3 Ki",5 nM
same,Ki,"D2 receptors; COS cells containing recombinantly produced D2 receptors, 0.5 nM 3H-YM 09151-2, nonspecific binding with 1 mM spiperone, read-out: D2 Ki",242 nM
"O=C(NCCCCN1CCN(c2cccc3ccccc23)CC1)c1ccc2sc3ccccc3c2c1 (as salt: hydrochloride) [Compound 2, N-(1-{4-[4-(1-Naphthyl)piperazin-1-yl]}butyl)-2-dibenzothiophenecarboxamide hydrochloride]",melting point,,225 to 228 °C
